This assay relates to orthotopic 4T1 breast cancer. The experiment in a line: Tumor transport model simulation: IFP/IFV, solute concentration and transvascular convective/diffusive flux profiles. Particulars: DEX treatment.

The values that follow come from US20250299826A1, “OPTIMAL TUMOR MICROENVIRONMENT NORMALIZATION THERAPY” (University of Connecticut, priority 2022, published 2025).

As for `C[C@@H]1C[C@H]2[C@@H]3CCC4=CC(=O)C=C[C@]4(C)[C@@]3(F)[C@@H](O)C[C@]2(C)[C@@]1(O)C(=O)CO` [DEX, dexamethasone], the “increase in volume fraction of tumor dominated by convective transport vs control” value is listed as 61%.
